Experimental data reported in publication PMC12785453, “Oral Fluid Concentrations and Pharmacological Effects of Clephedrone and Methylone in Humans” (International Journal of Molecular Sciences, 2025).

System: healthy volunteers
Assay: Subjective effects, visual analog scales (VAS), clephedrone study
Format: in vivo, humans
Text: The study evaluating the acute effects of clephedrone was designed as a non-controlled, prospective, observational, and naturalistic study. The procedures and evaluations included in this study have been described in previous studies evaluating other synthetic cathinones (mephedrone, methylone, alpha-PVP, NEP, HEXEN), phenethylamines (2C-B and 2C-E), or synthetic cannabinoids (JWH-122, JWH-210, UR-144).
This study consisted of one experimental session in which participants (N = 8; 6 women, 2 men) selected their oral dose of clephedrone based on their drug use experience and preferences. According to their dose selection, 3 women and 1 man ingested 100 mg of clephedrone, while the remaining 3 women and 1 man opted for a higher dose of 150 mg. […] Participants were recruited by word of mouth by the harm reduction organization Energy Control in Barcelona (Associació Benestar i Desenvolupament, ABD).
Subjective effects were evaluated with visual analog scales (VAS), the short form of the Addiction Research Center Inventory (ARCI), and the Evaluation of Subjective Effects of Substances with Abuse Potential questionnaire (VESSPA-SSE). In addition, the Sensitivity to Drug Reinforcement Questionnaire (SDRQ) and a pharmacological identification class questionnaire were used in the controlled study administering methylone.
VAS encompassed several adjectives that participants had to rate from “not at all” (0 mm) to “extremely” (100 mm) according to their sensations. This scale included 28 items: intensity, stimulated, high, good effects, bad effects, liking, changes in distances, changes in colors, changes in shapes, changes in lights, hallucinations (seeing lights or spots), hallucinations (seeing things, animals, insects, or people), changes in hearing, hallucinations (hearing sounds or voices), drowsiness, concentration, dizziness, confusion, different or changed body feeling, unreal body feeling, different surroundings, unreal surroundings, open, trust, feeling close to others, I want to be with other people, I want to hug someone, sexual desire, and sexual arousal.
Participants included in the naturalistic clephedrone study completed VAS at baseline, 0.50, 1, 1.5, 2, 3, 4, and 5 h, and ARCI and VESSPA at baseline, 1, 2, 3, 4, and 5 h after self-administering clephedrone. In the controlled study, VAS was performed at baseline and 0.25, 0.50, 0.75, 1, 1.5, 2, 3, 4, 6, 8, 10, and 24 h, and ARCI and VESSPA at baseline and 1, 2, 3, 4, 6, 8, and 10 h after administering methylone. Participants completed SDRQ and VAS sexual desire and arousal at baseline, 1 and 10 h, and the pharmacological class identification questionnaire at 8 h.
For statistical analysis, values of physiological (SBP, DBP, HR, and T) and subjective effects (VAS, ARCI, and VESSPA-SSE) were baseline–adjusted. Maximum effects (Emax) and the time needed to reach maximum effects (Tmax) were determined, and the area under the curve up to 5 h (AUC0–5h) for clephedrone and up to 6 h (AUC0–6h) for methylone was calculated using the trapezoidal rule. Emax and AUC values are presented as mean ± standard deviation, whereas Tmax is presented in median (range).
To find possible significant changes through the time course compared to baseline, a Dunnett multiple comparison test was carried out to compare each time point with baseline in both drug conditions. For clephedrone the comparisons were 0–0.5 h, 0–1 h, 0–1.5 h, 0–2 h, 0–3 h, 0–4 h and 0–5 h, and for methylone this analysis included 0–0.25 h, 0–0.5 h, 0–0.75 h, 0–1 h, 0–1.5 h, 0–2 h, 0–3 h, 0–4 h and 0–6 h. Given their different study designs, no comparative analysis between the time courses of both synthetic cathinones was conducted.

[1] = 100 or 150 mg oral, n=8, listed as clephedrone
[2] = AUC0–5h, 100 or 150 mg oral, n=8

## CNC(C)C(=O)c1ccc(Cl)cc1 (centres unmarked) [Clephedrone, 4-chloromethcathinone]
100 or 150 mg oral
  Hallucinogenic effects: did not evidence any hallucinogenic effects
  Tmax of the high-scoring VAS subjective effects: 3 h
100 or 150 mg oral, n=8
  VAS Bad effects Emax: 0.38 ± 0.74 mm
  VAS Changes in colors Emax: 1.13 ± 2.80 mm
  VAS Changes in colors Tmax: 0.0 (0.0–3.0) h
  VAS Changes in distances Emax: 1.88 ± 4.55 mm
  VAS Changes in distances Tmax: 0.0 (0.0–2.0) h
  VAS Changes in hearing Emax: 8.75 ± 16.24 mm
  VAS Changes in hearing Tmax: 0.0 (0.0–4.0) h
  VAS Changes in lights Emax: 4.75 ± 9.79 mm
  VAS Changes in lights Tmax: 0.0 (0.0–4.0) h
  VAS Concentration Emax: 22.13 ± 16.65 mm
  VAS Confusion Emax: 3.00 ± 3.82 mm
  VAS Different or changed body feeling Emax: 39.63 ± 22.15 mm
  VAS Different surroundings Emax: 13.75 ± 23.50 mm
  VAS Dizziness Emax: 1.13 ± 1.81 mm
  VAS Drowsiness Emax: 14.25 ± 22.86 mm
  VAS Feeling close to others Emax: 53.38 ± 13.79 mm
  VAS Good effects Emax: 58.50 ± 20.46 mm
  VAS High Emax: 54.25 ± 20.19 mm
  VAS I want to be with other people Emax: 34.63 ± 28.16 mm
  VAS I want to hug someone Emax: 37.63 ± 28.01 mm
  VAS Intensity Emax: 49.13 ± 17.18 mm
  VAS Liking Emax: 59.00 ± 18.56 mm
  VAS Open Emax: 49.25 ± 18.78 mm
  VAS Sexual arousal Emax: 20.13 ± 18.70 mm
  VAS Sexual desire Emax: 20.63 ± 19.60 mm
  VAS Stimulated Emax: 48.75 ± 14.47 mm
  VAS Trust Emax: 53.75 ± 20.62 mm
  VAS Unreal body feeling Emax: 2.13 ± 4.16 mm
  VAS Unreal surroundings Emax: 1.50 ± 4.24 mm
[1]
  VAS Concentration Emax: exceeding 20 mm
  VAS Different or changed body feeling Emax: > 30 mm
  VAS Feeling close to others Emax: exceeding 40 mm
  VAS Good effects Emax: exceeding 40 mm
  VAS High Emax: exceeding 40 mm
  VAS I want to be with other people Emax: > 30 mm
  VAS I want to hug someone Emax: > 30 mm
  VAS Intensity Emax: exceeding 40 mm
  VAS Liking Emax: exceeding 40 mm
  VAS Open Emax: exceeding 40 mm
  VAS Sexual arousal Emax: exceeding 20 mm
  VAS Sexual desire Emax: exceeding 20 mm
  VAS Stimulated Emax: exceeding 40 mm
  VAS Trust Emax: exceeding 40 mm
[2]
  VAS Bad effects AUC0-5/6 h: 0.38 ± 0.74 mm·h
  VAS Changes in colors AUC0-5/6 h: 1.75 ± 4.75 mm·h
  VAS Changes in distances AUC0-5/6 h: 1.53 ± 3.76 mm·h
  VAS Changes in hearing AUC0-5/6 h: 12.44 ± 23.03 mm·h
  VAS Changes in lights AUC0-5/6 h: 6.41 ± 14.74 mm·h
  VAS Concentration AUC0-5/6 h: 45.34 ± 33.03 mm·h
  VAS Confusion AUC0-5/6 h: 3.72 ± 5.72 mm·h
  VAS Different or changed body feeling AUC0-5/6 h: 87.38 ± 52.74 mm·h
  VAS Different surroundings AUC0-5/6 h: 25.56 ± 52.75 mm·h
  VAS Dizziness AUC0-5/6 h: 0.97 ± 1.49 mm·h
  VAS Drowsiness AUC0-5/6 h: 13.25 ± 20.39 mm·h
  VAS Feeling close to others AUC0-5/6 h: 116.56 ± 42.59 mm·h
  VAS Good effects AUC0-5/6 h: 129.66 ± 50.22 mm·h
  VAS High AUC0-5/6 h: 118.63 ± 44.24 mm·h
  VAS I want to be with other people AUC0-5/6 h: 62.94 ± 49.65 mm·h
  VAS I want to hug someone AUC0-5/6 h: 80.38 ± 74.45 mm·h
  VAS Intensity AUC0-5/6 h: 112.03 ± 34.05 mm·h
  VAS Liking AUC0-5/6 h: 134.09 ± 48.13 mm·h
  VAS Open AUC0-5/6 h: 112.56 ± 51.16 mm·h
  VAS Sexual arousal AUC0-5/6 h: 44.44 ± 49.02 mm·h
  VAS Sexual desire AUC0-5/6 h: 44.69 ± 48.58 mm·h
  VAS Stimulated AUC0-5/6 h: 104.81 ± 29.68 mm·h
  VAS Trust AUC0-5/6 h: 126.91 ± 60.79 mm·h
  VAS Unreal body feeling AUC0-5/6 h: 3.13 ± 6.75 mm·h
  VAS Unreal surroundings AUC0-5/6 h: 1.50 ± 4.24 mm·h
oral
  Time of peak pharmacological effects: 3 h
